Experimental data taken from patent US12251382B2, “Substituted amino-pyrimidine compound for use in a method for treatment and prevention of multiple sclerosis” (Merck Patent GmbH, priority 2018, dated 2025).
“Also recorded” adds a separate entry of the source. Like-named read-outs stand apart in the source and are kept apart here.

Conditions: for Overall safety and tolerability: single doses 25-500 mg, multiple doses 25-200 mg for 14 days
[1] = Part 1, pooled active, listed as evobrutinib

Procedure: A randomized, double-blind, placebo-controlled trial conducted in healthy volunteers. […] Written informed consent was obtained from all participants.
Following completion of each dose cohort in both parts of the study, a safety monitoring committee (SMC) decided whether protocol-defined dose escalation to the next level was appropriate to a maximum of 500 mg in Part 1, or to the highest safe and tolerated dose or highest dose from Part 1 in Part 2, based on all safety data and other available data (including PK and PD data). […] Other safety data (e.g., hematology parameters) were also taken into consideration for dose escalation decisions as a matter of course.
TEAEs and SAEs were recorded from time of informed consent until study completion. […] Assessment of severity considered the Toxicity Grading Scale for Healthy Adult and Adolescent Volunteers Enrolled in Preventative Vaccine Clinical Trials. Data were summarized using descriptive statistics.

C=CC(=O)N1CCC(CNc2ncnc(N)c2-c2ccc(Oc3ccccc3)cc2)CC1 [Evobrutinib, 1-(4-(((6-amino-5-(4-phenoxyphenyl)pyrimidin-4-yl)amino)methyl)piperidin-1-yl)prop-2-en-1-one]
Severity of TEAEs (Part 1): mild (Grade 1) except in one subject in the 200 mg treatment group
Subjects with contact dermatitis at locations of ECG pads (Part 1, all evobrutinib doses): 5.6%
Subjects with headache (Part 1, all evobrutinib doses): 5.6%
Dose-limiting TEAE (Part 1, one subject in the 200 mg treatment group): Grade 4 increased lipase in combination with Grade 3 increased amylase
Abdominal pain, subjects (Part 1, pooled active): 0 (0.0) n (%)
Amylase increased, number of TEAEs (Part 1, pooled active): [1]
Amylase increased, subjects (Part 1, pooled active): 1 (2.8) n (%)
Application site pruritus (due to ECG stickers), subjects (Part 1, pooled active): 0 (0.0) n (%)
Back pain, number of TEAEs (Part 1, pooled active): [1]
Back pain, subjects (Part 1, pooled active): 1 (2.8) n (%)
Contact dermatitis, number of TEAEs (Part 1, pooled active): [2]
Contact dermatitis, subjects (Part 1, pooled active): 2 (5.6) n (%)
Dizziness, number of TEAEs (Part 1, pooled active): [1]
Dizziness, subjects (Part 1, pooled active): 1 (2.8) n (%)
Dry eye, number of TEAEs (Part 1, pooled active): [1]
Dry eye, subjects (Part 1, pooled active): 1 (2.8) n (%)
Dry mouth, subjects (Part 1, pooled active): 0 (0.0) n (%)
Dyspepsia, number of TEAEs (Part 1, pooled active): [1]
Dyspepsia, subjects (Part 1, pooled active): 1 (2.8) n (%)
Excoriation, number of TEAEs (Part 1, pooled active): [1]
Excoriation, subjects (Part 1, pooled active): 1 (2.8) n (%)
Headache, number of TEAEs (Part 1, pooled active): [3]
Headache, subjects (Part 1, pooled active): 2 (5.6) n (%)
Lipase increased, number of TEAEs (Part 1, pooled active): [1]
Lipase increased, subjects (Part 1, pooled active): 1 (2.8) n (%)
Multiple injuries, number of TEAEs (Part 1, pooled active): [1]
Multiple injuries, subjects (Part 1, pooled active): 1 (2.8) n (%)
Nasal congestion, number of TEAEs (Part 1, pooled active): [1]
Nasal congestion, subjects (Part 1, pooled active): 1 (2.8) n (%)
Noncardiac chest pain, subjects (Part 1, pooled active): 0 (0.0) n (%)
Odynophagia, number of TEAEs (Part 1, pooled active): [1]
Odynophagia, subjects (Part 1, pooled active): 1 (2.8) n (%)
Overall total TEAEs, subjects (Part 1, pooled active): 9 (25.5) n (%)
Overall total, number of TEAEs (Part 1, pooled active): [15]
Upper respiratory tract infection, subjects (Part 1, pooled active): 0 (0.0) n (%)
Contact dermatitis, number of TEAEs [1]: two
Headache, number of TEAEs [1]: three
Overall total, number of TEAEs [1]: 15
Abdominal pain, subjects (Part 1, single dose 25 mg): 0 (0.0) n (%)
Amylase increased, subjects (Part 1, single dose 25 mg): 0 (0.0) n (%)
Application site pruritus (due to ECG stickers), subjects (Part 1, single dose 25 mg): 0 (0.0) n (%)
Back pain, subjects (Part 1, single dose 25 mg): 0 (0.0) n (%)
Contact dermatitis, subjects (Part 1, single dose 25 mg): 0 (0.0) n (%)
Dizziness, subjects (Part 1, single dose 25 mg): 0 (0.0) n (%)
Dry eye, subjects (Part 1, single dose 25 mg): 0 (0.0) n (%)
Dry mouth, subjects (Part 1, single dose 25 mg): 0 (0.0) n (%)
Dyspepsia, subjects (Part 1, single dose 25 mg): 0 (0.0) n (%)
Excoriation, subjects (Part 1, single dose 25 mg): 0 (0.0) n (%)
Headache, subjects (Part 1, single dose 25 mg): 0 (0.0) n (%)
Lipase increased, subjects (Part 1, single dose 25 mg): 0 (0.0) n (%)
Multiple injuries, subjects (Part 1, single dose 25 mg): 0 (0.0) n (%)
Nasal congestion, subjects (Part 1, single dose 25 mg): 0 (0.0) n (%)
Noncardiac chest pain, subjects (Part 1, single dose 25 mg): 0 (0.0) n (%)
Odynophagia, subjects (Part 1, single dose 25 mg): 0 (0.0) n (%)
Overall total TEAEs, subjects (Part 1, single dose 25 mg): 0 (0.0) n (%)
Upper respiratory tract infection, subjects (Part 1, single dose 25 mg): 0 (0.0) n (%)
Abdominal pain, subjects (Part 1, single dose 50 mg): 0 (0.0) n (%)
Amylase increased, subjects (Part 1, single dose 50 mg): 0 (0.0) n (%)
Application site pruritus (due to ECG stickers), subjects (Part 1, single dose 50 mg): 0 (0.0) n (%)
Back pain, number of TEAEs (Part 1, single dose 50 mg): [1]
Back pain, subjects (Part 1, single dose 50 mg): 1 (16.7) n (%)
Contact dermatitis, number of TEAEs (Part 1, single dose 50 mg): [2]
Contact dermatitis, subjects (Part 1, single dose 50 mg): 2 (33.3) n (%)
Dizziness, subjects (Part 1, single dose 50 mg): 0 (0.0) n (%)
Dry eye, subjects (Part 1, single dose 50 mg): 0 (0.0) n (%)
Dry mouth, subjects (Part 1, single dose 50 mg): 0 (0.0) n (%)
Dyspepsia, number of TEAEs (Part 1, single dose 50 mg): [1]
Dyspepsia, subjects (Part 1, single dose 50 mg): 1 (16.7) n (%)
Excoriation, subjects (Part 1, single dose 50 mg): 0 (0.0) n (%)
Headache, number of TEAEs (Part 1, single dose 50 mg): [2]
Headache, subjects (Part 1, single dose 50 mg): 1 (16.7) n (%)
Lipase increased, subjects (Part 1, single dose 50 mg): 0 (0.0) n (%)
Multiple injuries, subjects (Part 1, single dose 50 mg): 0 (0.0) n (%)
Nasal congestion, subjects (Part 1, single dose 50 mg): 0 (0.0) n (%)
Noncardiac chest pain, subjects (Part 1, single dose 50 mg): 0 (0.0) n (%)
Odynophagia, subjects (Part 1, single dose 50 mg): 0 (0.0) n (%)
Overall total TEAEs, subjects (Part 1, single dose 50 mg): 3 (50.0) n (%)
Overall total, number of TEAEs (Part 1, single dose 50 mg): [6]
Upper respiratory tract infection, subjects (Part 1, single dose 50 mg): 0 (0.0) n (%)
Abdominal pain, subjects (Part 1, single dose 100 mg): 0 (0.0) n (%)
Amylase increased, subjects (Part 1, single dose 100 mg): 0 (0.0) n (%)
Application site pruritus (due to ECG stickers), subjects (Part 1, single dose 100 mg): 0 (0.0) n (%)
Back pain, subjects (Part 1, single dose 100 mg): 0 (0.0) n (%)
Contact dermatitis, subjects (Part 1, single dose 100 mg): 0 (0.0) n (%)
Dizziness, subjects (Part 1, single dose 100 mg): 0 (0.0) n (%)
Dry eye, subjects (Part 1, single dose 100 mg): 0 (0.0) n (%)
Dry mouth, subjects (Part 1, single dose 100 mg): 0 (0.0) n (%)
Dyspepsia, subjects (Part 1, single dose 100 mg): 0 (0.0) n (%)
Excoriation, subjects (Part 1, single dose 100 mg): 0 (0.0) n (%)
Headache, subjects (Part 1, single dose 100 mg): 0 (0.0) n (%)
Lipase increased, subjects (Part 1, single dose 100 mg): 0 (0.0) n (%)
Multiple injuries, subjects (Part 1, single dose 100 mg): 0 (0.0) n (%)
Nasal congestion, number of TEAEs (Part 1, single dose 100 mg): [1]
Nasal congestion, subjects (Part 1, single dose 100 mg): 1 (16.7) n (%)
Noncardiac chest pain, subjects (Part 1, single dose 100 mg): 0 (0.0) n (%)
Odynophagia, subjects (Part 1, single dose 100 mg): 0 (0.0) n (%)
Overall total TEAEs, subjects (Part 1, single dose 100 mg): 1 (16.7) n (%)
Overall total, number of TEAEs (Part 1, single dose 100 mg): [1]
Upper respiratory tract infection, subjects (Part 1, single dose 100 mg): 0 (0.0) n (%)
Abdominal pain, subjects (Part 1, single dose 200 mg): 0 (0.0) n (%)
Amylase increased, number of TEAEs (Part 1, single dose 200 mg): [1]
Amylase increased, subjects (Part 1, single dose 200 mg): 1 (16.7) n (%)
Application site pruritus (due to ECG stickers), subjects (Part 1, single dose 200 mg): 0 (0.0) n (%)
Back pain, subjects (Part 1, single dose 200 mg): 0 (0.0) n (%)
Contact dermatitis, subjects (Part 1, single dose 200 mg): 0 (0.0) n (%)
Dizziness, number of TEAEs (Part 1, single dose 200 mg): [1]
Dizziness, subjects (Part 1, single dose 200 mg): 1 (16.7) n (%)
Dry eye, subjects (Part 1, single dose 200 mg): 0 (0.0) n (%)
Dry mouth, subjects (Part 1, single dose 200 mg): 0 (0.0) n (%)
Dyspepsia, subjects (Part 1, single dose 200 mg): 0 (0.0) n (%)
Excoriation, number of TEAEs (Part 1, single dose 200 mg): [1]
Excoriation, subjects (Part 1, single dose 200 mg): 1 (16.7) n (%)
Headache, subjects (Part 1, single dose 200 mg): 0 (0.0) n (%)
Lipase increased, number of TEAEs (Part 1, single dose 200 mg): [1]
Lipase increased, subjects (Part 1, single dose 200 mg): 1 (16.7) n (%)
Multiple injuries, subjects (Part 1, single dose 200 mg): 0 (0.0) n (%)
Nasal congestion, subjects (Part 1, single dose 200 mg): 0 (0.0) n (%)
Noncardiac chest pain, subjects (Part 1, single dose 200 mg): 0 (0.0) n (%)
Odynophagia, subjects (Part 1, single dose 200 mg): 0 (0.0) n (%)
Overall total TEAEs, subjects (Part 1, single dose 200 mg): 2 (33.3) n (%)
Overall total, number of TEAEs (Part 1, single dose 200 mg): [4]
Upper respiratory tract infection, subjects (Part 1, single dose 200 mg): 0 (0.0) n (%)
Abdominal pain, subjects (Part 1, single dose 350 mg): 0 (0.0) n (%)
Amylase increased, subjects (Part 1, single dose 350 mg): 0 (0.0) n (%)
Application site pruritus (due to ECG stickers), subjects (Part 1, single dose 350 mg): 0 (0.0) n (%)
Back pain, subjects (Part 1, single dose 350 mg): 0 (0.0) n (%)
Contact dermatitis, subjects (Part 1, single dose 350 mg): 0 (0.0) n (%)
Dizziness, subjects (Part 1, single dose 350 mg): 0 (0.0) n (%)
Dry eye, subjects (Part 1, single dose 350 mg): 0 (0.0) n (%)
Dry mouth, subjects (Part 1, single dose 350 mg): 0 (0.0) n (%)
Dyspepsia, subjects (Part 1, single dose 350 mg): 0 (0.0) n (%)
Excoriation, subjects (Part 1, single dose 350 mg): 0 (0.0) n (%)
Headache, subjects (Part 1, single dose 350 mg): 0 (0.0) n (%)
Lipase increased, subjects (Part 1, single dose 350 mg): 0 (0.0) n (%)
Multiple injuries, number of TEAEs (Part 1, single dose 350 mg): [1]
Multiple injuries, subjects (Part 1, single dose 350 mg): 1 (16.7) n (%)
Nasal congestion, subjects (Part 1, single dose 350 mg): 0 (0.0) n (%)
Noncardiac chest pain, subjects (Part 1, single dose 350 mg): 0 (0.0) n (%)
Odynophagia, subjects (Part 1, single dose 350 mg): 0 (0.0) n (%)
Overall total TEAEs, subjects (Part 1, single dose 350 mg): 1 (16.7) n (%)
Overall total, number of TEAEs (Part 1, single dose 350 mg): [1]
Upper respiratory tract infection, subjects (Part 1, single dose 350 mg): 0 (0.0) n (%)
Abdominal pain, subjects (Part 1, single dose 500 mg): 0 (0.0) n (%)
Amylase increased, subjects (Part 1, single dose 500 mg): 0 (0.0) n (%)
Application site pruritus (due to ECG stickers), subjects (Part 1, single dose 500 mg): 0 (0.0) n (%)
Back pain, subjects (Part 1, single dose 500 mg): 0 (0.0) n (%)
Contact dermatitis, subjects (Part 1, single dose 500 mg): 0 (0.0) n (%)
Dizziness, subjects (Part 1, single dose 500 mg): 0 (0.0) n (%)
Dry eye, number of TEAEs (Part 1, single dose 500 mg): [1]
Dry eye, subjects (Part 1, single dose 500 mg): 1 (16.7) n (%)
Dry mouth, subjects (Part 1, single dose 500 mg): 0 (0.0) n (%)
Dyspepsia, subjects (Part 1, single dose 500 mg): 0 (0.0) n (%)
Excoriation, subjects (Part 1, single dose 500 mg): 0 (0.0) n (%)
Headache, number of TEAEs (Part 1, single dose 500 mg): [2]
Headache, subjects (Part 1, single dose 500 mg): 1 (16.7) n (%)
Lipase increased, subjects (Part 1, single dose 500 mg): 0 (0.0) n (%)
Multiple injuries, subjects (Part 1, single dose 500 mg): 0 (0.0) n (%)
Nasal congestion, subjects (Part 1, single dose 500 mg): 0 (0.0) n (%)
Noncardiac chest pain, subjects (Part 1, single dose 500 mg): 0 (0.0) n (%)
Odynophagia, number of TEAEs (Part 1, single dose 500 mg): [1]
Odynophagia, subjects (Part 1, single dose 500 mg): 1 (16.7) n (%)
Overall total TEAEs, subjects (Part 1, single dose 500 mg): 2 (33.3) n (%)
Overall total, number of TEAEs (Part 1, single dose 500 mg): [3]
Upper respiratory tract infection, subjects (Part 1, single dose 500 mg): 0 (0.0) n (%)
Subjects with TEAEs (Part 1, single dosing, all evobrutinib doses): 25%
TEAEs leading to discontinuation; trends in vital signs, ECGs, laboratory values, IgG subclasses (either part of the study): no TEAEs leading to discontinuation and no clinically significant trends in vital signs, ECGs, laboratory values or immunoglobulin G (IgG) subclasses
SAE of multi-trauma due to an automobile accident, relation to study drug (one subject, 350 mg single ascending dose cohort, 7 days after administration): unrelated to the study drug
Deaths or serious adverse events (SAEs) related to treatment (single and multiple dosing (Parts 1 and 2)): no deaths or serious adverse events (SAEs) related to treatment
Overall safety and tolerability: well tolerated
Overall safety and tolerability (listed as evobrutinib): safe and well tolerated and no non-tolerated dose could be defined; also recorded: safe and well tolerated
